The term IC50 denotes the point on the concentration scale where inhibition reaches its midpoint. The inhibition is the percentage by which the read-out fell short of the control.

Assay [1] relates to Plasmodium falciparum Sir2A. Set-up: method as in PMID 19937668, PMID 18221799. The settings on record: previously described; ref [46], [72]; cited from earlier work.
A further assay addresses T1, TbSir2rp1 (Trypanosoma brucei brucei, UniProt Q57V41).
T1 construct: hexahistidine (C); made in house
In words: TbSir2rp1 deacetylase inhibition. Format: biochemical. The method, then: (§1) T. brucei Sir2rp1 (accession number: AAX70528.1) tagged with a C-terminal hexahistidine was expressed and characterized essentiality as described previously L. infantum Sir2rp1 was expressed and purified as previously described.
(§2) The deacetylase activity was measured using the commercial SIRT1/Sir2 Deacetylase Fluorometric Assay Kit (CycLex,Japan) according to the manufacturer’s recommendations. Briefly, fluorescence emission after digestion of deacetylated substrates by a lysine specific endopeptidase was measured in a fluorometric plate reader (Synergy HT, BioTek) with excitation and emission wavelengths set at 340 and 440 nm, respectively, every 30 seconds for 1 hour. The slope of the linear part of the reaction was calculated and used as readout of enzyme activity.

Another assay has as its target TcSir2rp1 (Trypanosoma cruzi, UniProt Q4DVL9). Briefly: TcSir2rp1 NAD+-dependent deacetylase fluorimetric assay (CycLex kit). It counts as biochemical. How it is done: The deacetylase activity was measured using the commercial SIRT1/Sir2 Deacetylase Fluorometric Assay Kit (CycLex,Japan) according to the manufacturer’s recommendations. Briefly, fluorescence emission after digestion of deacetylated substrates by a lysine specific endopeptidase was measured in a fluorometric plate reader (Synergy HT, BioTek) with excitation and emission wavelengths set at 340 and 440 nm, respectively, every 30 seconds for 1 hour. The slope of the linear part of the reaction was calculated and used as readout of enzyme activity. […]
A variety of the bisnaphthalimidopropyl (BNIPs) derivatives, as well as the newly synthetized derivatives were evaluated as potential TcSir2rp1 inhibitors. The enzymatic reactions were performed using a commercially available CycLex SIRT1/Sir2 deacetylase fluorimetric kit (CycLex Co. Ltd., Nagano, Japan) in the absence and presence of the various inhibitors, 200 μM NAD^+ and 10 μM of peptide substrate as previously described.
A variety of the bisnaphthalimidopropyl (BNIPs) derivatives, as well as the newly synthetized derivatives were evaluated as potential TcSir2rp1 inhibitors. The enzymatic reactions were performed using a commercially available CycLex SIRT1/Sir2 deacetylase fluorimetric kit (CycLex Co. Ltd., Nagano, Japan) in the absence and presence of the various inhibitors, 200 µM NAD^+ and 10 µM of peptide substrate as previously described.

In another assay the target is T2, human SIRT1 (Homo sapiens, UniProt Q96EB6).
T2 sequence (Q96EB6 1-747): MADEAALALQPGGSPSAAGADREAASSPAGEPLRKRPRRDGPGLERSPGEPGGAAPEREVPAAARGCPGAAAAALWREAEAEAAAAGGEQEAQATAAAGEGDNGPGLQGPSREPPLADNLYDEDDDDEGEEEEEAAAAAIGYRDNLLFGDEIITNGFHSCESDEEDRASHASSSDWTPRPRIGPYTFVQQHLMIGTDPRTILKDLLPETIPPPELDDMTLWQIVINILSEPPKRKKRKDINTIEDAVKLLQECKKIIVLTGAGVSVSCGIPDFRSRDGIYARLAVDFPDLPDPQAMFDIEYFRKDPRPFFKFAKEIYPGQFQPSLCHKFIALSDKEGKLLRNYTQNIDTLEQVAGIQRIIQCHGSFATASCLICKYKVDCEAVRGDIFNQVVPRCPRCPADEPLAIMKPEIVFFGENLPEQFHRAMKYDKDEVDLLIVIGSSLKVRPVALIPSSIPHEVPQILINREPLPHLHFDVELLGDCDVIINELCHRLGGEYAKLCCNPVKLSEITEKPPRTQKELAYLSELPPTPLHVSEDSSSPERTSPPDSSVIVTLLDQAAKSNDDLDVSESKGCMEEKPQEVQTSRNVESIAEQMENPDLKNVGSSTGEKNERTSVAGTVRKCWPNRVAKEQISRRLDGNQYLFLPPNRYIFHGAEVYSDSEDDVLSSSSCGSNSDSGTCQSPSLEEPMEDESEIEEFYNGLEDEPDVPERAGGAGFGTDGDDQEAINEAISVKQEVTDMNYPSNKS
In words: hSIRT1 deacetylase inhibition (CycLex kit). The note with it: 200 μM. It counts as biochemical.

For another assay, the system named is T. cruzi amastigotes. Briefly: High-content screening assay on intracellular T. cruzi amastigotes. It counts as cell-based, Trypanosoma cruzi. The settings on record: up to a concentration of 2000 μM (2 mM). The method, then:
For the evaluation of the activity against T. cruzi amastigotes, high-content screening (HCS) was designed. In summary, 100 μL of host C2C12 cells (ATCC) were seeded in clear bottom black 96-well plates at a density of 2.5 x 10^4 cells/mL (2.5 × 10^3 cells/well). After 24 hrs, 50 μL of Y strain tissue culture-derived trypomastigotes were used to infect the host cells at a density of 7.5 x 10^5/mL (3.75 x 10^4 parasites/well). The parasites were allowed to infect for a 24 hr period, after which compounds were added in a volume of 50 μL. […] After 72 hrs of compound incubation, the wells were fixed with 4% paraformaldehyde for 15 to 30 mins. The plates were then washed once with deionized water and stained with a solution of DAPI (3 μM) for 1 hour. Plates were imaged in an INCell 2000 (GE Healthcare) high-content analyser by taking 16 pictures per well at 20 X objective amplification. Images were analysed with INCell Developer software (GE Healthcare) using the segmentation of host cell nuclei and parasite kinetoplast DNA. The measurement output used was the average number of parasites per cell calculated by the ratio of host cell nuclei/parasite kinetoplast DNA.
In this assay, the compounds are incubated for 72 hours with cells previously infected with wild-type trypomastigotes for 24 hours. The readout was done by comparing the average number of amastigotes per cell that developed by the end of the incubation period. The quality of the assay was statistically evaluated by the calculation of the z-factor [75], that represents the reliability of the assay in distinguishing positive controls confidently from negative controls. Varying from 0 to 1, z-factor values higher than 0.5 are considered acceptable for drug screening. The z-factor obtained was 0.68, validating the use of the assay (S3B Fig).

The next assay concerns the target T3, LiSir2rp1 (Leishmania infantum, UniProt A0A6L0XH39).
T3 construct: made in house
Briefly: LiSir2rp1 deacetylase inhibition. It counts as biochemical. The method, then: as §1, §2

TcSir2rp1, sequence (Q4DVL9 entry or part of it): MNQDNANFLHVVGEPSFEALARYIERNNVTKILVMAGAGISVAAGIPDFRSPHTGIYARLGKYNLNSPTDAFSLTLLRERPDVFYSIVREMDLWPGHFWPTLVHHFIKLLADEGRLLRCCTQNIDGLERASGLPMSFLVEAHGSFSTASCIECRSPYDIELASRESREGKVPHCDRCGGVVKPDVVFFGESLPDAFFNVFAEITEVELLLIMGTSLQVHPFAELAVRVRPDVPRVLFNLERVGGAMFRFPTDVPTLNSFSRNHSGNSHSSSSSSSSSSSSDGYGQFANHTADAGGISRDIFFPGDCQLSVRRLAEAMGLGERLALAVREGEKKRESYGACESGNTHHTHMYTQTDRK
T3 sequence (A0A6L0XH39 entry or part of it): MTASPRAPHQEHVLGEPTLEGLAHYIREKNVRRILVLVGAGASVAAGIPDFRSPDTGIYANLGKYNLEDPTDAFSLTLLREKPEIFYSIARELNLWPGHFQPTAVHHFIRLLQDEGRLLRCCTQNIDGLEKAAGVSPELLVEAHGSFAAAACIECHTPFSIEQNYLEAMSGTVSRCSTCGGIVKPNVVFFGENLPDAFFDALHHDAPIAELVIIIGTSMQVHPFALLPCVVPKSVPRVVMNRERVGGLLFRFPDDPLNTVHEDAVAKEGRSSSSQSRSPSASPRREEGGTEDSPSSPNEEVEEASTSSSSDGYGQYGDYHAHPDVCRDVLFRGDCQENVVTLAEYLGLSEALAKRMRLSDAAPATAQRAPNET
T1 sequence (Q57V41 whole entry): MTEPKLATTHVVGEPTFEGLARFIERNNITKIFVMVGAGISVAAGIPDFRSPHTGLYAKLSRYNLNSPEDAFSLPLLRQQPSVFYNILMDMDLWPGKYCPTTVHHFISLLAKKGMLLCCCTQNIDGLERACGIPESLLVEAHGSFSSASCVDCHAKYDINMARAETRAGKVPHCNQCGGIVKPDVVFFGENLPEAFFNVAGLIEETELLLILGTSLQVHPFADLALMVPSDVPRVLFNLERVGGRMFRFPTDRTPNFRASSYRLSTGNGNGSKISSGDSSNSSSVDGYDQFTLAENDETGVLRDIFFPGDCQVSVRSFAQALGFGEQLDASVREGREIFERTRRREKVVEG

As for `NC(=O)c1cccnc1` [Nicotinamide, nicotinamide, reference compound], the concentration for half-maximal inhibition (IC50) is 51.2 ± 3 µM in assay [1]; 456 ± 44 µM at TcSir2rp1 (10 μM Ac-peptide and 200 μM NAD+, read-out: IC50 of TcSir2rp1 inhibition). The inhibition at 200 µM at TbSir2rp1 was 70 ± 5%; on TcSir2rp1 (200 μM), 34 ± 1%; against human SIRT1, 66 ± 10%; at LiSir2rp1 it was 82%. The “Activity in the amastigote assay” value in the assay on T. cruzi amastigotes is “no amastigote anti-parasitic activity was detected”.

The values above are taken from paper PMC5794198, “Inhibitors of Trypanosoma cruzi Sir2 related protein 1 as potential drugs against Chagas disease” (PLoS Neglected Tropical Diseases, 2018).
